Here are results for 11 molecules from PubChem BioAssay (NCI).

Among the test systems are HOP-62 NSCLC; A549 NSCLC; SR leukemia; MCF7 breast; COLO 205 colon; SK-MEL-2 melanoma; ACHN renal.
Holding throughout (assay): DTP human tumour cell line panel, 48 h

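These data come from cells grown in 96-well plates and exposed to compound for 48 hours at five concentrations. At the GI50, growth is halved. TGI denotes the concentration required for complete inhibition of growth.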

The GI50 is the concentration giving 50% growth inhibition. As usually defined, the TGI is the concentration giving total growth inhibition. For the molecule `Cc1nn(C)c2ncnc(N/N=C/c3cccc(O)c3O)c12`, the GI50 was 1.08 µM in the test with HOP-62 NSCLC; 2.11 µM with A549 NSCLC; 0.269 µM in the test with SR leukemia; 0.594 µM in the test on MCF7 breast; 1.11 µM in the test with COLO 205 colon; 2.98 µM in the test with SK-MEL-2 melanoma. Also, in the test on ACHN renal, the 50% growth inhibitory concentration (GI50) is 0.338 µM. For the same molecule, the total growth inhibition concentration (TGI) is 15.1 µM in the test on HOP-62 NSCLC; over 100 µM in the test on A549 NSCLC; 16.3 µM in the test with SR leukemia; over 100 µM in the test on MCF7 breast; over 78.7 µM with COLO 205 colon; over 76.3 µM in the test with SK-MEL-2 melanoma. This molecule also came in with a total growth inhibition concentration (TGI) with ACHN renal of over 32.3 µM.
For `CC(C)C1(NC(=O)C2CC3c4cccc5[nH]cc(c45)CC3N(C)C2)OC2(O)C3CCCN3C(=O)C(Cc3ccccc3)N2C1=O` (stereo not given), the TGI was over 100 µM in the test with HOP-62 NSCLC; over 100 µM in the test with A549 NSCLC; 41.2 µM with SR leukemia; over 100 µM with MCF7 breast; over 100 µM in the test with COLO 205 colon; over 100 µM in the test with SK-MEL-2 melanoma. In the test with ACHN renal, this molecule displayed a total growth inhibition concentration (TGI) of over 100 µM.
As to `CC(C)=Cc1cc(C)c2ccc(C)c3c2c1C(C)=C(O)C3=O`, the GI50 was 28.4 µM in the test on HOP-62 NSCLC; 32 µM in the test on A549 NSCLC; 1.46 µM with SR leukemia; 53.5 µM in the test on MCF7 breast; 17.1 µM in the test on COLO 205 colon; 25.7 µM with SK-MEL-2 melanoma. Also, the GI50 in the test with ACHN renal is over 100 µM. For the same molecule, the total growth inhibition concentration (TGI) in the test with HOP-62 NSCLC is 61.7 µM; in the test on A549 NSCLC it was over 100 µM; in the test on SR leukemia it was 4.17 µM; in the test with MCF7 breast, over 100 µM; in the test with COLO 205 colon, 41.6 µM; in the test with SK-MEL-2 melanoma, 82.3 µM. The total growth inhibition concentration (TGI) with ACHN renal is over 100 µM.
With `NC(N)=NC(N)=Nc1ccc(C(=O)O)cc1`, the TGI in the test with HOP-62 NSCLC, in the test on A549 NSCLC, in the test with SR leukemia, in the test on MCF7 breast, in the test on COLO 205 colon and in the test with SK-MEL-2 melanoma was over 100 µM each time. Also, the concentration for total growth inhibition (TGI) with ACHN renal was over 100 µM.
With `CCC[CH2][Sn]([CH2]CCC)([CH2]CCC)/[C](=C/[Si](C)(C)c1ccccc1)c1ccc2c(c1)OCO2`, the GI50 in the test with HOP-62 NSCLC is 23.7 µM; with A549 NSCLC it was 25.2 µM; with SR leukemia, 8.61 µM; in the test on MCF7 breast, 20.7 µM; with COLO 205 colon, 18.7 µM; in the test with SK-MEL-2 melanoma, 23.5 µM. Moreover, in the test with ACHN renal, the GI50 was 18.4 µM. Further, the TGI in the test with HOP-62 NSCLC was found to be 50.6 µM; in the test with A549 NSCLC, 82.9 µM; in the test with SR leukemia it was 63.9 µM; with MCF7 breast, 53.7 µM; with COLO 205 colon it was 39 µM; in the test with SK-MEL-2 melanoma, 63.5 µM. In the test on ACHN renal, this molecule displayed a total growth inhibition concentration (TGI) of 36.2 µM.
In the case of `N#CC1=C(N)NC(N2CCOCC2)=NC12Nc1ccccc1O2` (stereo not given), the GI50 was 14 µM in the test with HOP-62 NSCLC; 70 µM in the test on A549 NSCLC; 27.7 µM in the test on SR leukemia; 23.3 µM in the test with MCF7 breast; 67.7 µM in the test on COLO 205 colon; 39.7 µM in the test with SK-MEL-2 melanoma. In addition, the GI50 with ACHN renal was 34 µM. Further, the TGI in the test with HOP-62 NSCLC was 51.3 µM; in the test on A549 NSCLC, over 100 µM; with SR leukemia, over 100 µM; in the test with MCF7 breast it was 64.2 µM; in the test with COLO 205 colon, over 100 µM; in the test on SK-MEL-2 melanoma, over 100 µM. For the same molecule, the TGI with ACHN renal is over 100 µM.
`O=C1OCC2=C1C(c1cccc(C(F)(F)F)c1)c1cc3c(cc1N2CCO)OCCO3` (stereo not given): the GI50 was 1.31 µM with HOP-62 NSCLC; 1.53 µM in the test with A549 NSCLC; 1.04 µM in the test with SR leukemia; 1.09 µM with MCF7 breast; 0.868 µM with COLO 205 colon; 1.99 µM with SK-MEL-2 melanoma. Also, the GI50 in the test on ACHN renal is 2.83 µM. For the same molecule, the TGI is over 33.3 µM in the test with HOP-62 NSCLC; over 33.3 µM with A549 NSCLC; over 33.3 µM in the test with SR leukemia; over 33.3 µM in the test with MCF7 breast; 2.48 µM with COLO 205 colon; over 33.3 µM in the test with SK-MEL-2 melanoma. In the test with ACHN renal, this molecule yielded a TGI of over 33.3 µM.
Turning to `O=C(O)COc1ccc(OCC(=O)O)cc1`, the GI50 is 0.408 µM in the test on HOP-62 NSCLC; 0.432 µM in the test on A549 NSCLC; 0.0614 µM in the test on SR leukemia; 0.0567 µM in the test with MCF7 breast; 1.05 µM with COLO 205 colon; 3.28 µM in the test with SK-MEL-2 melanoma. Moreover, the GI50 in the test with ACHN renal was 0.522 µM. The TGI turned out to be 8.53 µM with HOP-62 NSCLC; 2.16 µM with A549 NSCLC; 12.7 µM in the test with SR leukemia; 10.7 µM in the test on MCF7 breast; 13.4 µM in the test with COLO 205 colon; 15.9 µM in the test on SK-MEL-2 melanoma. This molecule also had a concentration for total growth inhibition (TGI) in the test on ACHN renal of 4.02 µM.
For the molecule `CCCCC#Cc1c(I)n(C2OC(CO[Si](C)(C)C(C)(C)C)C3OC(C)(C)OC32)c(=O)n(C(=O)c2ccccc2)c1=O` (stereo not given), the GI50 in the test with HOP-62 NSCLC was 10.7 µM; with A549 NSCLC it was over 100 µM; in the test with SR leukemia it was 1.69 µM; with MCF7 breast it was 2.14 µM; in the test with COLO 205 colon, 1.59 µM; in the test on SK-MEL-2 melanoma, 2.09 µM. In addition, in the test on ACHN renal, the GI50 was 3 µM. In addition, the TGI in the test on HOP-62 NSCLC was 23 µM; with A549 NSCLC it was over 100 µM; with SR leukemia, 9.35 µM; in the test on MCF7 breast, 5.59 µM; in the test with COLO 205 colon, 3.14 µM; in the test on SK-MEL-2 melanoma, 4.75 µM. This molecule came in with a TGI with ACHN renal of over 100 µM.
In the case of `CCN(CC)CCCNCc1cc(-c2ccccc2)nc2cc(Cl)ccc12`, the GI50 with HOP-62 NSCLC is 5.54 µM; with A549 NSCLC it was 7.02 µM; with SR leukemia, 0.716 µM; in the test on MCF7 breast, 1.69 µM; in the test with COLO 205 colon it was 1.74 µM; in the test on SK-MEL-2 melanoma, 2.32 µM. Besides, the GI50 in the test on ACHN renal is 3.74 µM. Also, the TGI in the test on HOP-62 NSCLC stood at 19.3 µM; in the test with A549 NSCLC it was 21.2 µM; in the test on SR leukemia, 5.38 µM; in the test with MCF7 breast, 4.06 µM; with COLO 205 colon it was 3.27 µM; with SK-MEL-2 melanoma, 4.55 µM. This molecule gave a TGI with ACHN renal of 14.2 µM.
As to `C=CC1C(CC2OC(CO)C(O)C(O)C2O)OC=C2C(=O)OCCC21O` (stereo not given), the GI50 was 13.4 µM in the test with HOP-62 NSCLC; 18.5 µM in the test on A549 NSCLC; 3.32 µM in the test on SR leukemia; 21.6 µM in the test on MCF7 breast; 19.9 µM with COLO 205 colon; 22.4 µM in the test with SK-MEL-2 melanoma. The GI50 in the test with ACHN renal is 29.8 µM. For the same molecule, the concentration for total growth inhibition (TGI) in the test on HOP-62 NSCLC is 35.5 µM; with A549 NSCLC, 48.9 µM; with SR leukemia, 26.5 µM; with MCF7 breast it was over 100 µM; in the test on COLO 205 colon, 45.2 µM; in the test with SK-MEL-2 melanoma it was 71.4 µM. The TGI in the test with ACHN renal was over 100 µM.
